# Source: patent EP0433679A2, “Pharmaceutical compositions for inhibition of maillard's reaction” (Senju Pharmaceutical Co., Ltd., priority 1989, dated 1991)
# Biological target: bovine serum albumine (Bos taurus, UniProt P02769)
# Assay: Inhibition of furosine formation (non-enzymatic glycosylation of BSA by glucose, furosine determined by HPLC)
# Conditions: 672 h, pH 7.3, read-out: Inhibition rate (%)
# Procedure: The sample solutions were kept for 4 weeks at 37 °C, and the amount of furosine which was formed by non-enzymatic glycosylation was determined by HPLC according to the method of Schleicher et al. (J. Clin. Biochem., 19:81-87 (1981).] Thus, the sample solutions after reaction were dialyzed, and aliquots of 1 ml were lyophylized and then hydrolyzed by the addition of 1 ml of 6 N hydrochloric acid followed by heating at 100 °C for 20 hours. After removal of hydrochloric acid by evaporation, 1 ml of water was added to each sample, and the samples were subjected to filtration using a filter with the pore size of 0.45 µm. The filtrate was used as the sample for HPLC. ODS-120T (Toso) was used for the column and 7 mM phosphoric acid solution was used as the eluant. The absorbance peak whose ratio of peak area at 280 mm/254 mm was 3.9/1 was regarded as the peak corresponding to furosine.
# Upon the area of the peak of furosine of each sample, the inhibition rate of furosine formation by the test compound was calculated as follows. Inhibition rate (%)=(c-d)+(c-n)×100 c; peak area of furosine of the control sample d; peak area of furosine of the test sample n; peak area of furosine of the normal sample
# bovine serum albumine, sequence (P02769 25-607): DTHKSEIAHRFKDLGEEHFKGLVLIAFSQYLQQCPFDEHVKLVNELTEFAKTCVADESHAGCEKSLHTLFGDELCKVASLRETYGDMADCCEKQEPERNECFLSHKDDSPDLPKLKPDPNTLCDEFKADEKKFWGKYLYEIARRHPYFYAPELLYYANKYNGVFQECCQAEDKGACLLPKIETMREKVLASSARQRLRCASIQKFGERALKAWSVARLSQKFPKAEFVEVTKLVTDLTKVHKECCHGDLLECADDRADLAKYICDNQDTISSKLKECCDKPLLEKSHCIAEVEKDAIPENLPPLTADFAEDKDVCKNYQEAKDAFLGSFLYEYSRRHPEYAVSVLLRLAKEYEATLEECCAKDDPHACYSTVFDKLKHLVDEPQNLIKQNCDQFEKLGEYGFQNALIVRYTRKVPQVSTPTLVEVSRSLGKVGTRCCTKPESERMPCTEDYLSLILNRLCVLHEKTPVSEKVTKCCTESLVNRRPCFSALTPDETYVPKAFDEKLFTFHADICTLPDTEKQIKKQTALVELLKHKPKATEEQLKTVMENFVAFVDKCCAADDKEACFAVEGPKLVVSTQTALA
row,inhibition at 5000 µM,Structure (SMILES)
1,79.9%,O=C(O)c1cnc2c(c1O)C(=O)C=CC2=O [T-7]
2,76%,O=C(O)c1cc(O)c2c(n1)C(=O)C=CC2=O [T-6]
3,99.5%,Cc1cc(O)c2c(n1)C(=O)C=CC2=O [T-9]
4,92.5%,COC(=O)c1cc(O)c2c(n1)C(=O)C=CC2=O [T-4]
5,96.9%,CCOC(=O)c1cnc2c(c1O)C(=O)C=CC2=O [T-8]
6,78.9%,O=C(O)c1cc(O)c2c(O)ccc(O)c2n1 [T-5]
7,79.9%,Oc1ccc(O)c2c(O)cc(C(F)(F)F)nc12 [T-2]
8,73.8%,"O=c1ccc2[n+]([O-])c3ccc(O)cc3oc-2c1 [T-10, resazurin]"
9,73.4%,O=C1C=CC(=O)c2c(O)cc(C(F)(F)F)nc21 [T-3]
10,77.8%,O=C(O)c1cc(O)c2c(n1)C(=O)C=C(O)C2=O [T-1]

row,Structure (SMILES),inhibition at 5000 µM
1,"N=C(N)NN [Aminoguanidine, aminoguanidine, reference compound]",7.5%
